Reference: US20230087941A1, “COMBINATIONS” (Recurium IP Holdings, LLC, priority 2019, published 2023)

Tests used:
[1] = test system: MCF-7 breast cancer tumor cells; experiment: MCF-7 xenograft tumor model; type: in vivo; settings: Compound 1 80 mg/kg, oral, daily; MCF-7 xenograft in BALB/c nude mice
Experimental: ZR-75-1-R breast cancer tumor cells (Tamoxifen resistant) were maintained in vitro as monolayer culture in RPMI1640 Medium supplemented with 10% fetal bovine serum and 10 μM tamoxifen at 37° C. in an atmosphere of 5% CO2 in air. The cells growing in an exponential growth phase were harvested and counted for tumor inoculation. BALB/c nude mice were implanted subcutaneously in the right flank with ZR-75-1-R tumor cells (1×10^7) in 100 μl PBS:Matrigel (1:1). When tumors reached approximately 191 mm^3, animals were randomly distributed into treatment groups of 10 animals each and dosed orally, daily with vehicle, freebase Compound (A) at 30 mg/kg, Compound 1 at 80 mg/kg, or compound A at 30 mg/kg in combination with Compound 1 at 80 mg/kg for 28 days. […] Tumor volumes were evaluated twice per week to calculate tumor volume over time, and mice were weighed twice per week as a surrogate for signs of toxicity. […]
Example 2: MCF-7 breast cancer tumor cells were cultured in vitro in DMEM Medium supplemented with 15% fetal bovine serum at 37° C. in an atmosphere of 5% CO2 in air. The cells growing in an exponential growth phase were harvested and counted for tumor inoculation. […] Tumor volumes were evaluated twice per week to calculate tumor volume over time, and mice were weighed twice per week as a surrogate for signs of toxicity. TGI values were calculated using the equation provide in Example 1.

[2] = test system: ZR-75-1-R breast cancer tumor cells (Tamoxifen resistant); experiment: ZR-75-1-R xenograft tumor model; type: in vivo; settings: oral, daily, 28 days, ZR-75-1-R xenograft in BALB/c nude mice
Experimental: ZR-75-1-R breast cancer tumor cells (Tamoxifen resistant) were maintained in vitro as monolayer culture in RPMI1640 Medium supplemented with 10% fetal bovine serum and 10 μM tamoxifen at 37° C. in an atmosphere of 5% CO2 in air. The cells growing in an exponential growth phase were harvested and counted for tumor inoculation. BALB/c nude mice were implanted subcutaneously in the right flank with ZR-75-1-R tumor cells (1×10^7) in 100 μl PBS:Matrigel (1:1). When tumors reached approximately 191 mm^3, animals were randomly distributed into treatment groups of 10 animals each and dosed orally, daily with vehicle, freebase Compound (A) at 30 mg/kg, Compound 1 at 80 mg/kg, or compound A at 30 mg/kg in combination with Compound 1 at 80 mg/kg for 28 days. In addition, estradiol benzoate injections were delivered by s.c. (40 μg/20 μL, twice weekly). Tumor volumes were evaluated twice per week to calculate tumor volume over time, and mice were weighed twice per week as a surrogate for signs of toxicity. Tumor growth inhibition (TGI) was calculated using the following equation TGI=(1−(Td−T0)/(Cd−C0))×100%. Td and Cd are the mean tumor volumes of the treated and control animals, and TO and CO are the mean tumor volumes of the treated and control animals at the start of the experiment.

| Compound | Tumor growth inhibition (TGI) [1] | Tumor growth inhibition (TGI) ([2]; Compound 1 80 mg/kg) | Tumor growth inhibition (TGI) ([2]; freebase Compound (A) 30 mg/kg) |
| --- | --- | --- | --- |
| C=CCn1c(=O)c2cnc(Nc3ccc(N4CCN(C)CC4)cc3)nc2n1-c1ccc2c(n1)[C@@](O)(CC)CC2 [Compound 1] | 132.6% | 69.9% | – |
| C[C@@H]1Cc2c([nH]c3ccccc23)[C@@H](c2c(F)cc(/C=C/C(=O)O)cc2F)N1C12CC(C1)C2 [Compound (A)] | – | – | 43.0% |
